Blank lines part the entries; values can stand above or below the compound they belong to. Activity calls are given as the source filed them. The rule behind the calls is not given here.
Key:
[1] = biological target: T1, Histone deacetylase 11 (Homo sapiens) (UniProt Q96DB2); assay: Inhibition of HDAC11 in human MM487 cells at 0.1 to 0.4 uM assessed as increase in p21 level and measured by Western blot analysis; assay type: cell-based; conditions: dose 0.1-0.4 µM
T1 sequence (whole entry): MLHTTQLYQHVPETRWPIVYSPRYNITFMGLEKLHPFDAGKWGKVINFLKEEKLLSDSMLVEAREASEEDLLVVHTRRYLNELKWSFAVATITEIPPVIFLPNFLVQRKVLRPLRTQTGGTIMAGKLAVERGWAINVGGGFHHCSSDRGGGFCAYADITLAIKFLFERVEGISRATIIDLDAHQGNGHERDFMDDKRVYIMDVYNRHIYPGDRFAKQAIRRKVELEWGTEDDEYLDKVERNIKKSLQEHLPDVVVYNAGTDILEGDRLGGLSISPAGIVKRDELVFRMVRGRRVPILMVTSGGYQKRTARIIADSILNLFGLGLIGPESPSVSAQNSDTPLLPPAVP

[2] = tested on: NCI-H460; assay: Induction of cell cycle arrest in human NCI-H460 cells assessed as accumulation of cells at S phase at 0.25 uM after 72 hrs by flow cytometry (reference value: 32.1%); assay type: functional
[3] = tested on: NCI-H460; assay: Induction of cell cycle arrest in human NCI-H460 cells assessed as accumulation of cells at G2/M phase at 0.25 uM after 72 hrs by flow cytometry (reference value: 21.1%); assay type: functional
[4] = Induction of cell cycle arrest in human H460-R9A cells assessed as accumulation of cells at G2/M phase at 2.8 uM after 72 hrs by flow cytometry (reference value: 15.4%); assay type: functional
[5] = Antitumor activity against human H460-R9A cells xenografted in mouse assessed as tumor growth inhibition at 50 mg/kg, po qd administered 5 times a week for 3 to 4 weeks in combination with cisplatin at 4 mg/kg, iv administered every 7 days for 4 weeks; assay type: functional; conditions: time 3-4 weeks, read-out: TGI
[6] = biological target: T1, Histone deacetylase 11 (Homo sapiens); assay: Inhibition of HDAC11 in human A2780 cells at 0.1 to 0.4 uM assessed as induction of p53 acetylation and measured by Western blot analysis; assay type: cell-based; conditions: dose 0.1-0.4 µM
[7] = tested on: H460-R9A; assay: Antiproliferative activity against human H460-R9A cells at 0.75 to 12 uM in combination with SIS17 after 72 hrs by MTT assay; assay type: functional, cell-based; conditions: dose 0.75-12 µM

inhibition [1]: Active
SMILES: O=C(O)C=Cc1ccc(-c2ccc(OCC(=O)NO)c(C34CC5CC(CC(C5)C3)C4)c2)cc1
Activity [2]: 80.9% | Activity [3]: 2.8% | Activity [4]: 12.9% | inhibition in vivo at 50 mg/kg [5]: 78%

inhibition [6]: Active
SMILES: CC(Oc1ccc(-c2ccc(C=CC(=O)O)cc2)cc1C12CC3CC(CC(C3)C1)C2)C(=O)NO (configuration not stated)

SMILES: O=C(O)C=Cc1ccc(-c2ccc(O)c(C34CC5CC(CC(C5)C3)C4)c2)cc1
Activity [7]: Active
